# Test results: publication PMC10882696, “Novel 5-Substituted Oxindole Derivatives as Bruton’s Tyrosine Kinase Inhibitors: Design, Synthesis, Docking, Molecular Dynamics Simulation, and Biological Evaluation” (ACS Omega, 2024)
# “Also recorded” adds a separate entry of the source.
# Assays:
# A549 = assay: 3 day MTS cytotoxicity assay, A549; assay type: cell-based; conditions: Homo sapiens; A549, ITK/BTK-negative; mean ± SD, n ≥ 6
# Procedure: (§1) The cytotoxic activity of all the 10 compounds was tested under in vitro conditions using a 3 day standard 3-(4,5-dimethylthiazol-2yl)-5-(3-carboxymethoxyphenyl)-2-(4-sulfophenyl)-2H-tetrazolium reduction assay in 384-well plates on a robotic high-throughput screening platform (HighResBio, Boston, MA) as described elsewhere.[38] The IC50 values were calculated from the respective dose–response curves of compounds with Dotmatics (San Diego, CA, USA).
# HCT116 = assay: 3 day MTS cytotoxicity assay, HCT116; assay type: cell-based; conditions: Homo sapiens, HCT-116; HCT116, ITK/BTK-negative; mean ± SD, n ≥ 6
# Procedure: as §1
# HCT116p53^–/– = assay: 3 day MTS cytotoxicity assay, HCT116p53-/-; assay type: cell-based; conditions: ITK/BTK-negative, mean ± SD, n ≥ 6
# Procedure: as §1
# U2OS = assay: 3 day MTS cytotoxicity assay, U2OS; assay type: cell-based; conditions: Homo sapiens, ITK/BTK-negative, mean ± SD, n ≥ 6
# Procedure: as §1
# JURKAT = assay: 3 day MTS cytotoxicity assay, JURKAT; assay type: cell-based; conditions: Homo sapiens, ITK-positive, mean ± SD, n ≥ 6
# Procedure: as §1
# CCRF-CEM = assay: 3 day MTS cytotoxicity assay, CCRF-CEM; assay type: cell-based; conditions: Homo sapiens, ITK-positive, mean ± SD, n ≥ 6
# Procedure: as §1
# RAMOS = assay: 3 day MTS cytotoxicity assay, RAMOS; assay type: cell-based, human; conditions: for activity in RAMOS cells: BTK-high; for IC50: Homo sapiens, Ramos, BTK-positive, mean ± SD, n ≥ 6
# Procedure: as §1
# K562 = assay: 3 day MTS cytotoxicity assay, K562; assay type: cell-based; conditions: Homo sapiens; K562, BTK-positive; mean ± SD, n ≥ 6
# Procedure: as §1
# MRC-5 = assay: 3 day MTS cytotoxicity assay, MRC-5; assay type: cell-based; conditions: Homo sapiens, MRC5; MRC-5, non-cancer fibroblasts; mean ± SD, n ≥ 6
# Procedure: as §1
# BJ = assay: 3 day MTS cytotoxicity assay, BJ; assay type: cell-based; conditions: Homo sapiens, non-cancer fibroblasts, mean ± SD, n ≥ 6
# Procedure: as §1
# Plasma stability = assay type: in vitro ADME; conditions: human plasma, in vitro
# Procedure: (§2) Selected compounds were assayed for human plasma and liver microsomal stability in vitro, PAMPA and cellular permeability models of gastrointestinal resorption, and the blood–brain barrier using Caco-2 and MDR1-MCDK cells as previously described.[38] Samples were analyzed in an Agilent RapidFire 300 High-Throughput Mass Spectrometry System (RF-MS; Agilent, Wakefield, MA) with subsequent detection in a Qtrap 5500 mass spectrometer (AB Sciex, Concord, Canada).
# [1] = Liver microsomal stability; assay type: in vitro ADME; conditions: human liver microsomes, intrinsic clearance category
# Procedure: as §2
# Plasma protein binding = assay type: in vitro ADME; conditions: in vitro, read-out: plasma protein binding (% bound) (converted)
# [2] = Parallel artificial membrane permeability assay (PAMPA); assay type: in vitro ADME; conditions: passive diffusion
# Procedure: as §2
# [3] = MDR1-MDCK permeability (blood–brain barrier model); assay type: in vitro ADME; conditions: dog
# Procedure: as §2
# MDR1-MDCK cells = assay: MDR1-MDCK permeability (blood–brain barrier model); assay type: in vitro ADME
# Procedure: as §2
# MDR1 = assay: MDR1-MDCK permeability (blood–brain barrier model); assay type: in vitro ADME; conditions: dog
# Procedure: as §2
# [4] = Caco-2 permeability (gastrointestinal resorption model); assay type: in vitro ADME; conditions: human, Caco-2
# Procedure: as §2
# Caco-2 cells = assay: as above; assay type: in vitro ADME
# Procedure: as §2
SMILES,IC50 (A549) [µM],IC50 (HCT116) [µM],IC50 (HCT116p53^–/–) [µM],IC50 (U2OS) [µM],IC50 (JURKAT) [µM],IC50 (CCRF-CEM) [µM],activity in RAMOS cells (RAMOS),IC50 (RAMOS) [µM],IC50 (K562) [µM],IC50 (MRC-5) [µM],IC50 (BJ) [µM],also measured
"CC(C)C(=O)N1CCN(S(=O)(=O)c2ccc3c(c2)C(=C2CCCC2)C(=O)N3)CC1 [9a, 3-Cyclopentylidene-5-((4-isobutyrylpiperazin-1-yl)sulfonyl)indolin-2-one]",> 50,> 50,> 50,> 50,> 50,> 50,no activity,> 50,> 50,> 50,> 50,melting point: 165 to 171 °C
"O=C1Nc2ccc(S(=O)(=O)N3CCN(C(=O)C4CC4)CC3)cc2C1=C1CCCC1 [9c, 3-Cyclopentylidene-5-((4-(cyclopropanecarbonyl)piperazin-1-yl)sulfonyl)indolin-2-one]",> 50,> 50,> 50,> 50,50,> 50,did not show any activity,> 50,> 50,> 50,> 50,
"O=C1Nc2ccc(S(=O)(=O)N3CCN(C(=O)c4ccccc4)CC3)cc2C1=C1CCCC1 [9d, 5-((4-Benzoylpiperazin-1-yl)sulfonyl)-3-cyclopentylideneindolin-2-one]",> 50,> 50,> 50,> 50,> 50,> 50,did not show any activity,> 50,> 50,> 50,> 50,
"O=C1Nc2ccc(S(=O)(=O)N3CCN(C(=O)c4cccc(Cl)c4)CC3)cc2C1=C1CCCC1 [9e, 5-((4-(3-Chlorobenzoyl)piperazin-1-yl)sulfonyl)-3-cyclopentylideneindolin-2-one]",> 50,> 50,> 50,> 50,> 50,> 50,did not show any activity,> 50,> 50,> 50,> 50,
"O=C1Nc2ccc(S(=O)(=O)N3CCN(C(=O)c4cccc(Br)c4)CC3)cc2C1=C1CCCC1 [9f, 5-((4-(3-Bromobenzoyl)piperazin-1-yl)sulfonyl)-3-cyclopentylideneindolin-2-one]",> 50,> 50,> 50,> 50,> 50,> 50,selective cytotoxicity; also recorded: showed activity; also recorded: good anticancer activity in the micromole range,2.06 ± 0.43,> 50,> 50,> 50,plasma stability (category) (Plasma stability): stable; microsomal stability (clearance) [1]: medium; fraction unbound (Plasma protein binding): 0.043; PAMPA category [2]: low; recovery [3]: 79.2%; MDR1-MDCK CNS (−ive/+ive) (MDR1-MDCK cells): CNS –ive; active efflux (MDR1-MDCK cells): active efflux: yes; Papp (MDR1): 3.2 ×10⁻⁶ cm/s; efflux ratio (MDR1): 6.93; Papp [4]: 10.6 ×10⁻⁶ cm/s; efflux ratio [4]: 3.79; recovery [4]: 74.5%; active efflux (Caco-2 cells; Caco-2): active efflux: yes; Caco-2 category (Caco-2 cells; Caco-2 permeability): medium permeability; also recorded: moderate
"O=C1Nc2ccc(S(=O)(=O)N3CCN(C(=O)c4cccc(F)c4)CC3)cc2C1=C1CCCC1 [9g, 3-Cyclopentylidene-5-((4-(3-fluorobenzoyl)piperazin-1-yl)sulfonyl)indolin-2-one]",> 50,> 50,> 50,> 50,> 50,46.5 ± 5.81,selective cytotoxicity; also recorded: showed activity; also recorded: good anticancer activity in the micromole range,2.09 ± 0.47,> 50,> 50,> 50,
"O=C1Nc2ccc(S(=O)(=O)N3CCN(C(=O)c4cccnc4)CC3)cc2C1=C1CCCC1 [9i, 3-Cyclopentylidene-5-((4-nicotinoylpiperazin-1-yl)sulfonyl)indolin-2-one]",> 50,> 50,> 50,> 50,> 50,> 50,no activity,> 50,> 50,> 50,> 50,
"O=C1Nc2ccc(S(=O)(=O)N3CCN(C(=O)c4cccc(C(F)(F)F)c4)CC3)cc2C1=C1CCCC1 [9j, 3-Cyclopentylidene-5-((4-(3-(trifluoromethyl)benzoyl)piperazin-1-yl)sulfonyl)indolin-2-one]",> 50,> 50,> 50,23.6 ± 6.44,> 50,> 50,no activity,> 50,> 50,27.4 ± 6.8,> 50,
"C=CC(=O)N1CCC[C@@H](n2nc(-c3ccc(Oc4ccccc4)cc3)c3c(N)ncnc32)C1 [ibrutinib, Ibrutinib, reference compound]",,30 ± 1,30 ± 1,23 ± 3,5 ± 1,4 ± 1,,0.3,27 ± 3,28,29 ± 1,
